How the values were obtained:
HCV Genotype 1A Replicon = assay: Replicon assay, genotype 1a subgenomic replicon, luciferase readout; format: cell-based; conditions: Hepatitis C virus, 48 h, Table 3; luciferase activity after 48 hours
Method: (§1) Compounds were assayed for activity against HCV using the genotype 1a and 1b subgenomic replicon model systems. Stable cell lines bearing the genotype 1a and 1b replicons were used for screening of compounds. Both replicons are bicistonic and contain the firefly luciferase gene. The ET cell line is stably transfected with RNA transcripts harboring a I389luc-ubi-neo/NS3-3′/ET replicon with firefly luciferase-ubiquitin-neomycin phosphotransferase fusion protein and EMCV-IRES driven NS3-5B polyprotein containing the cell culture adaptive mutations (E1202G; T12801; K1846T) (Krieger at al, 2001 and unpublished). The genotype 1a replicon is a stable cell line licensed from Apath LLC, modified to contain the firefly luciferase gene. The cells were grown in DMEM, supplemented with 10% fetal calf serum, 2 mM Glutamine, Penicillin (100 IU/mL)/Streptomycin (100 μg/mL), 1× nonessential amino acids, and 250-500 μg/mL G418 (“Geneticin”). They were all available through Life Technologies (Bethesda, Md.). The cells were plated at 0.5×10^4 cells/well in 384 well plates containing compounds. The final concentration of compounds ranged between 0.03 μM to 50 μm and the final DMSO concentration of 0.5-1%.
(§2) Luciferase activity was measured 48 hours later by adding a Steady glo (Promega, Madison, Wis.). Percent inhibition of replication data was plotted relative to no compound control. Under the same condition, cytotoxicity of the compounds was determined using cell titer glo (Promega, Madison, Wis). IC50s were determined from a 10 point dose response curve using 3-4-fold serial dilution for each compound, which spans a concentration range >1000 fold. BioAssay determines the level of inhibition for each compound by normalizing cross-talk corrected plate values against the negative […] controls to determine Percent Inhibition:
(§3) These normalized values are exported to EC50 where they are plotted against the molar compound concentrations using the standard four parameter logistic equation: […]
(§4) Some EC50 measurements were repeated a second time and for both 1A and 1B genotypes after those reported in Table 2 for compounds 101-108 and the repeated data was reported in Table 3.

HCV Genotype 1B Replicon = assay: Replicon assay, genotype 1b subgenomic replicon (ET cell line), luciferase readout; format: cell-based; conditions: Hepatitis C virus, 48 h, Table 3; luciferase activity after 48 hours
Method: as §1, §2, §3, §4

Compound	EC50 (HCV Genotype 1A Replicon)	EC50 (HCV Genotype 1B Replicon)
C[C@H]1C[C@@H](N2CCOC2=O)CCN1C(=O)c1nc2c(C(F)(F)F)cc(-c3ccoc3)cn2c1Cl (racemic) [Compound 205, (±) cis-3-(1-{[3-chloro-6-(3-furanyl)-8-(trifluoromethyl)imidazo[1,2-a]pyridin-2-yl]carbonyl}-2-methyl-4-piperidinyl)-1,3-oxazolidin-2-one]	1070 nM	1760 nM
C[C@@H]1C[C@@H](N2CCOC2=O)CCN1C(=O)c1nc2c(C(F)(F)F)cc(-c3ccoc3)cn2c1Cl (racemic) [Compound 206, (±) trans-3-(1-{[3-chloro-6-(3-furanyl)-8-(trifluoromethyl)imidazo[1,2-a]pyridin-2-yl]carbonyl}-2-methyl-4-piperidinyl)-1,3-oxazolidin-2-one]	70 nM	140 nM
O=C(c1nc2c(C(F)(F)F)cc(-c3ccoc3)cn2c1Cl)N1CC[C@@H](N2CCOC2=O)[C@H](O)C1 (racemic) [Compound 212, (±) trans-3-(1-{[3-chloro-6-(3-furanyl)-8-(trifluoromethyl)imidazo[1,2-a]pyridin-2-yl]carbonyl}-3-hydroxy-4-piperidinyl)-1,3-oxazolidin-2-one]	50 nM	80 nM
CC(C)Cc1cc(C(F)(F)F)c2nc(C(=O)N3CC[C@H](N4CCOC4=O)[C@@H](O)C3)c(Cl)n2c1 (racemic) [Compound 215, (±) trans-3-(1-{[3-chloro-6-(2-methylpropyl)-8-(trifluoromethyl)imidazo[1,2-a]pyridin-2-yl]carbonyl}-3-hydroxy-4-piperidinyl)-1,3-oxazolidin-2-one]	90 nM	350 nM
O=C(c1nc2c(C(F)(F)F)cc(Br)cn2c1Cl)N1CC[C@H](N2CCOC2=O)[C@@H](O)C1 (racemic) [Compound 219, (±) trans-3-(1-{[6-bromo-3-chloro-8-(trifluoromethyl)imidazo[1,2-a]pyridin-2-yl]carbonyl}-3-hydroxy-4-piperidinyl)-1,3-oxazolidin-2-one]	150 nM	580 nM
O=C(c1nc2c(C(F)(F)F)cc(Br)cn2c1Cl)N1CC[C@H](N2C(=O)COC2=O)[C@@H](O)C1 (racemic) [Compound 222, (±) trans-3-(1-{[6-bromo-3-chloro-8-(trifluoromethyl)imidazo[1,2-a]pyridin-2-yl]carbonyl}-3-hydroxy-4-piperidinyl)-1,3-oxazolidine-2,4-dione]	940 nM	20 nM
O=C(c1nc2c(C(F)(F)F)cc(-c3ccoc3)cn2c1Cl)N1CC[C@H](N2C(=O)COC2=O)[C@@H](O)C1 (racemic) [Compound 223, (±) trans-3-(1-{[3-chloro-6-(3-furanyl)-8-(trifluoromethyl)imidazo[1,2-a]pyridin-2-yl]carbonyl}-3-hydroxy-4-piperidinyl)-1,3-oxazolidine-2,4-dione]	1580 nM	810 nM
O=C(c1nc2c(C(F)(F)F)cc(C3CC3)cn2c1Cl)N1CC[C@H](N2C(=O)COC2=O)[C@@H](O)C1 (racemic) [Compound 224, (±) trans-3-(1-{[3-chloro-6-cyclopropyl-8-(trifluoromethyl)imidazo[1,2-a]pyridin-2-yl]carbonyl}-3-hydroxy-4-piperidinyl)-1,3-oxazolidine-2,4-dione]	1430 nM	210 nM
O=C(c1nc2c(C(F)(F)F)cc(C3CC3)cn2c1Cl)N1CC[C@H](N2CCCC2=O)[C@@H](O)C1 (racemic) [Compound 225, (±) trans-1-(1-{[3-chloro-6-cyclopropyl-8-(trifluoromethyl)imidazo[1,2-a]pyridin-2-yl]carbonyl}-3-hydroxy-4-piperidinyl)-2-pyrrolidinone]	480 nM	150 nM
O=C(c1nc2c(C(F)(F)F)cc(Br)cn2c1Cl)N1CC[C@H](N2CCCC2=O)[C@@H](O)C1 (racemic) [Compound 226, (±) trans-1-(1-{[6-bromo-3-chloro-8-(trifluoromethyl)imidazo[1,2-a]pyridin-2-yl]carbonyl}-3-hydroxy-4-piperidinyl)-2-pyrrolidinone]	2260 nM	1450 nM
O=C(c1nc2c(C(F)(F)F)cc(-c3ccoc3)cn2c1Cl)N1CC[C@H](N2CCCC2=O)[C@@H](O)C1 (racemic) [Compound 227, (±) trans-1-(1-{[3-chloro-6-(3-furanyl)-8-(trifluoromethyl)imidazo[1,2-a]pyridin-2-yl]carbonyl}-3-hydroxy-4-piperidinyl)-2-pyrrolidinone]	690 nM	340 nM
O=C(c1nc2c(C(F)(F)F)cc(C3CC3)cn2c1Cl)N1CC[C@H](N2CCCC2=O)[C@H](O)C1 (racemic) [Compound 228, (±) cis-1-(1-{[3-chloro-6-cyclopropyl-8-(trifluoromethyl)imidazo[1,2-a]pyridin-2-yl]carbonyl}-3-hydroxy-4-piperidinyl)-2-pyrrolidinone]	250 nM	90 nM
O=C(c1nc2c(C(F)(F)F)cc(Br)cn2c1Cl)N1CC[C@H](N2CCCC2=O)[C@H](O)C1 (racemic) [Compound 229, (±) cis-1-(1-{[6-bromo-3-chloro-8-(trifluoromethyl)imidazo[1,2-a]pyridin-2-yl]carbonyl}-3-hydroxy-4-piperidinyl)-2-pyrrolidinone]	960 nM	350 nM
O=C(c1nc2c(C(F)(F)F)cc(-c3ccoc3)cn2c1Cl)N1CC[C@H](N2CCCC2=O)[C@H](O)C1 (racemic) [Compound 230, (±) cis-1-(1-{[3-chloro-6-(3-furanyl)-8-(trifluoromethyl)imidazo[1,2-a]pyridin-2-yl]carbonyl}-3-hydroxy-4-piperidinyl)-2-pyrrolidinone]	420 nM	180 nM
O=C(c1nc2c(C(F)(F)F)cc(C3CC3)cn2c1Cl)N1CC[C@H](N2CCOC2=O)[C@H](O)C1 (racemic) [Compound 231, (±) cis-3-(1-{[3-chloro-6-cyclopropyl-8-(trifluoromethyl)imidazo[1,2-a]pyridin-2-yl]carbonyl}-3-hydroxy-4-piperidinyl)-1,3-oxazolidin-2-one]	20 nM	30 nM
O=C(c1nc2c(C(F)(F)F)cc(Br)cn2c1Cl)N1CC[C@H](N2CCOC2=O)[C@H](O)C1 (racemic) [Compound 233, (±) cis-3-(1-{[6-bromo-3-chloro-8-(trifluoromethyl)imidazo[1,2-a]pyridin-2-yl]carbonyl}-3-hydroxy-4-piperidinyl)-1,3-oxazolidin-2-one]	110 nM	180 nM
CO[C@H]1CN(C(=O)c2nc3c(C(F)(F)F)cc(-c4ccoc4)cn3c2Cl)CC[C@@H]1N1CCOC1=O (racemic) [Compound 236, (±) trans-3-[1-{[3-chloro-6-(3-furanyl)-8-(trifluoromethyl)imidazo[1,2-a]pyridin-2-yl]carbonyl}-3-(methyloxy)-4-piperidinyl]-1,3-oxazolidin-2-one]	≥ 5010 nM	≥ 5010 nM
CO[C@H]1CN(C(=O)c2nc3c(C(F)(F)F)cc(Br)cn3c2Cl)CC[C@@H]1N1CCOC1=O (racemic) [Compound 237, (±) trans-3-[1-{[6-bromo-3-chloro-8-(trifluoromethyl)imidazo[1,2-a]pyridin-2-yl]carbonyl}-3-(methyloxy)-4-piperidinyl]-1,3-oxazolidin-2-one]	≥ 5010 nM	≥ 5010 nM
CO[C@H]1CN(C(=O)c2nc3c(C(F)(F)F)cc(C4CC4)cn3c2Cl)CC[C@@H]1N1CCOC1=O (racemic) [Compound 238, (±) trans-3-[1-{[3-chloro-6-cyclopropyl-8-(trifluoromethyl)imidazo[1,2-a]pyridin-2-yl]carbonyl}-3-(methyloxy)-4-piperidinyl]-1,3-oxazolidin-2-one]	≥ 5010 nM	≥ 5010 nM
O=C(c1nc2c(C(F)(F)F)cc(C3CC3)cn2c1Cl)N1CC[C@@H](N2CCOC2=O)[C@H](O)C1 (single isomer, unassigned; enantiomer 1) [Compound 220, 3-((trans)-1-{[3-chloro-6-cyclopropyl-8-(trifluoromethyl)imidazo[1,2-a]pyridin-2-yl]carbonyl}-3-hydroxy-4-piperidinyl)-1,3-oxazolidin-2-one (Enantiomer 1)]	20 nM	30 nM
O=C(c1nc2c(C(F)(F)F)cc(C3CC3)cn2c1Cl)N1CC[C@H](N2CCOC2=O)[C@H](O)C1 (single isomer, unassigned; enantiomer 1) [Compound 234, 3-((cis)-1-{[3-chloro-6-cyclopropyl-8-(trifluoromethyl)imidazo[1,2-a]pyridin-2-yl]carbonyl}-3-hydroxy-4-piperidinyl)-1,3-oxazolidin-2-one (Enantiomer 1)]		50 nM

From patent publication US20100272680A1, “Piperidinyl Cyclic Amido Antiviral Agents” (priority 2009, published 2010)
